The results in this text go back to patent US7737166B2, “Antifungal bicyclic hetero ring compounds” (Daiichi Sankyo Company, Limited, priority 2005, dated 2010).

One data set has as its system C. albicans ATCC90028. In words: Antifungal activity (GI80), growth inhibition in YPD20 medium by absorbance at 600 nm. In kind it is cell-based. The following applies: Candida albicans, ATCC90028, minimum concentration for at least 80% cell growth inhibition, 37° C., absorbance 600 nm, read-out: GI80 (μg/ml) C. albicans ATCC90028. In outline: (§1)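 Cells grown overnight on Sabouraud dextrose agar at 30° C were inoculated at 5×10^3 cells/ml into YPD20-type medium with 2-fold DMSO compound dilutions. Aerobic static culture at 37° C for […], then A600 read; GI80 is the lowest concentration giving ≥80% growth inhibition versus compound-free wells.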

In another data set the test system is C. glabrata ATCC48435. Described as above. In kind it is cell-based. As to conditions: Nakaseomyces glabratus, ATCC48435, minimum concentration for at least 80% cell growth inhibition, 37° C., absorbance 600 nm, read-out: GI80 (μg/ml) C. glabrata ATCC48435. In outline:
as §1

A further data set has as its system C. albicans ATCC MYA-573. The data set is described as above. Format: cell-based. As to conditions: Candida albicans, minimum concentration for at least 80% cell growth inhibition, 37° C., absorbance 600 nm, read-out: GI80 (μg/ml) C. albicans ATCC MYA-573. A digest of the protocol: as §1

Converted amounts (≈) assume the structure as drawn.

On to `Cc1c(-c2ccccc2)c(N2CC[C@H](N(C)C)C2)c2oc(C(C)(C)C)nc2c1C#N.Cl` [Example 1, 2-tert-Butyl-7-[(3S)-3-(dimethylamino)pyrrolidin-1-yl]-5-methyl-6-phenyl-1,3-benzoxazole-4-carbonitrile hydrochloride], for which the melting point is 198 to 201 °C (dec.). Besides, the IC80 with C. albicans ATCC90028 is 0.063 µg/mL. Further, the IC80 in the data set with C. glabrata ATCC48435 is 0.032 µg/mL. Besides, the IC80 in the data set with C. albicans ATCC MYA-573 is 0.063 µg/mL.
Turning to `CN[C@H]1CCN(c2c(-c3ccccc3)c(C)c(C#N)c3nc(C(C)(C)C)oc23)C1.Cl` [Example 2, 2-tert-Butyl-5-methyl-7-[(3S)-3-(methylamino)pyrrolidin-1-yl]-6-phenyl-1,3-benzoxazole-4-carbonitrile hydrochloride], the melting point was 237 to 240 °C (dec.). Besides, the IC80 in the data set on C. albicans ATCC90028 turned out to be 0.5 µg/mL. Also, the IC80 with C. glabrata ATCC48435 worked out at 0.125 µg/mL. In the data set with C. albicans ATCC MYA-573, the IC80 turned out to be 0.25 µg/mL.
For `Cc1c(-c2ccccc2)c(N2CCC(N(C)C)C2)c2oc(C(C)(C)CO)nc2c1C#N` (stereo not shown) [Example 14, 7-[3-(Dimethylamino)pyrrolidin-1-yl]-2-(2-hydroxy-1,1-dimethylethyl)-5-methyl-6-phenyl-1,3-benzoxazole-4-carbonitrile] the same measures were 175 to 178 °C, 0.25 µg/mL (≈ 0.597 µM), 0.125 µg/mL (≈ 0.299 µM) and 0.25 µg/mL (≈ 0.597 µM).
`Cc1c(-c2cccn2C)c(N2CC[C@H](N(C)C)C2)c2oc(C3CC3)nc2c1C#N` [Example 22, 2-Cyclopropyl-7-[(3S)-3-(dimethylamino)pyrrolidin-1-yl]-5-methyl-6-(1-methyl-1H-pyrrol-2-yl)-1,3-benzoxazole-4-carbonitrile] yielded a melting point of 127 to 128 °C. Also, in the data set on C. albicans ATCC90028, the IC80 is 0.5 µg/mL (≈ 1.28 µM). In the data set with C. glabrata ATCC48435, the IC80 is 0.5 µg/mL (≈ 1.28 µM). The IC80 with C. albicans ATCC MYA-573 came out at 1 µg/mL (≈ 2.57 µM).
In the case of `Cc1nc(-c2c(C)c(C#N)c3nc(C4CC4)oc3c2N2CC[C@H](N(C)C)C2)cs1` [Example 23, 2-Cyclopropyl-7-[(3S)-3-(dimethylamino)pyrrolidin-1-yl]-5-methyl-6-(2-methyl-1,3-thiazol-4-yl)-1,3-benzoxazole-4-carbonitrile], the melting point lay within 167 to 168 °C. The IC80 with C. albicans ATCC90028 is 1 µg/mL (≈ 2.45 µM). For the same compound, the IC80 in the data set on C. glabrata ATCC48435 worked out at 0.5 µg/mL (≈ 1.23 µM). In the data set with C. albicans ATCC MYA-573, the IC80 is 1 µg/mL (≈ 2.45 µM).
`Cc1c(-c2ccccc2)c(N2CC[C@H](N(C)C)C2)c2oc(-c3ccccn3)nc2c1C#N` [Example 35, 7-[(3S)-3-(Dimethylamino)pyrrolidin-1-yl]-5-methyl-6-phenyl-2-(pyridin-2-yl)-1,3-benzoxazole-4-carbonitrile]: the melting point fell in the range of 227 to 233 °C. Besides, in the data set on C. albicans ATCC90028, the IC80 was found to be 0.25 µg/mL (≈ 0.59 µM). The IC80 in the data set on C. glabrata ATCC48435 stood at 0.032 µg/mL (≈ 0.0756 µM). In addition, in the data set with C. albicans ATCC MYA-573, the IC80 turned out to be 0.25 µg/mL (≈ 0.59 µM).
Consider `Cc1c(-c2ccccc2)c(N2CC[C@H](N(C)C)C2)c2oc(C(=O)N(C)C)nc2c1C#N` [Example 40, 4-Cyano-7-[(3S)-3-(dimethylamino)pyrrolidin-1-yl]-N,N,5-trimethyl-6-phenyl-1,3-benzoxazole-2-carboxamide], for which the melting point was 139 to 142 °C. Further, the IC80 in the data set with C. albicans ATCC90028 stood at 0.063 µg/mL (≈ 0.151 µM). In the data set with C. glabrata ATCC48435, the IC80 came out at 0.016 µg/mL (≈ 0.0383 µM). The IC80 in the data set with C. albicans ATCC MYA-573 was 0.063 µg/mL (≈ 0.151 µM).
The compound `CN[C@H]1CCN(c2c(-c3ccccc3)c(C)c(C#N)c3nc(C(=O)N(C)C)oc23)C1` [Example 40-1, 4-Cyano-N,N,5-trimethyl-7-[(3S)-3-(methylamino)pyrrolidin-1-yl]-6-phenyl-1,3-benzoxazole-2-carboxamide] gave a melting point of 148 to 151 °C. The IC80 in the data set with C. albicans ATCC90028 came out at 0.25 µg/mL (≈ 0.62 µM). In the data set with C. glabrata ATCC48435, the IC80 was found to be 0.032 µg/mL (≈ 0.0793 µM). The IC80 in the data set with C. albicans ATCC MYA-573 is 0.25 µg/mL (≈ 0.62 µM).
For `Cc1nc(-c2c(C)c(C#N)c3nc(C(=O)N(C)C)oc3c2N2CC[C@H](N(C)C)C2)cs1` [Example 51, 4-Cyano-7-[(3S)-3-(dimethylamino)pyrrolidin-1-yl]-N,N,5-trimethyl-6-(2-methyl-1,3-thiazol-4-yl)-1,3-benzoxazole-2-carboxamide], the melting point fell in the range of 153 to 156 °C. In the data set on C. albicans ATCC90028, the IC80 was found to be 1 µg/mL (≈ 2.28 µM). In the data set on C. glabrata ATCC48435, the IC80 turned out to be 0.25 µg/mL (≈ 0.57 µM). Besides, the IC80 in the data set with C. albicans ATCC MYA-573 was found to be 1 µg/mL (≈ 2.28 µM).
Compound `Cc1c(-c2ccccc2)c(N2CC[C@H](N(C)C)C2)c2oc(N3CC(CO)C3)nc2c1C#N` [Example 98, 7-[(3S)-3-(Dimethylamino)pyrrolidin-1-yl]-2-[3-(hydroxymethyl)azetidin-1-yl]-5-methyl-6-phenyl-1,3-benzoxazole-4-carbonitrile] registered a melting point of 48 to 51 °C. The IC80 in the data set with C. albicans ATCC90028 came out at 0.5 µg/mL (≈ 1.16 µM). For the same compound, in the data set on C. glabrata ATCC48435, the IC80 came to 0.125 µg/mL (≈ 0.29 µM). Also, the IC80 in the data set with C. albicans ATCC MYA-573 is 0.5 µg/mL (≈ 1.16 µM).
With `Cc1c(-c2ccccc2N)c(N2CC[C@H](N(C)C)C2)c2oc(C3CC3)nc2c1C#N` [Example 144-13, 6-(2-Aminophenyl)-2-cyclopropyl-7-[(3S)-3-(dimethylamino)pyrrolidin-1-yl]-5-methyl-1,3-benzoxazole-4-carbonitrile], the melting point was in the range of 191 to 194 °C. Besides, the IC80 with C. albicans ATCC90028 stood at 1 µg/mL (≈ 2.49 µM). Also, in the data set with C. glabrata ATCC48435, the IC80 turned out to be 0.5 µg/mL (≈ 1.25 µM). Further, the IC80 in the data set on C. albicans ATCC MYA-573 turned out to be 1 µg/mL (≈ 2.49 µM).
`Cc1c(-c2ccccc2)c(N2CC[C@H](N(C)C)C2)c2oc(C(C)(C)F)nc2c1C#N` [Example 148, 7-[(3S)-3-(Dimethylamino)pyrrolidin-1-yl]-2-(1-fluoro-1-methylethyl)-5-methyl-6-phenyl-1,3-benzoxazole-4-carbonitrile] came in with a melting point of 130 to 132 °C. For the same compound, the IC80 in the data set with C. albicans ATCC90028 is 0.032 µg/mL (≈ 0.0787 µM). For the same compound, in the data set on C. glabrata ATCC48435, the IC80 is less than 0.016 µg/mL. In the data set with C. albicans ATCC MYA-573, the IC80 stood at 0.063 µg/mL (≈ 0.155 µM).
Regarding `Cc1c(-c2ccccc2)c(C2=CCNC2)c2oc(C3CC3)nc2c1C#N` [Example 153, 2-Cyclopropyl-7-(2,5-dihydro-1H-pyrrol-3-yl)-5-methyl-6-phenyl-1,3-benzoxazole-4-carbonitrile], the melting point was 172 to 174 °C.
Same read-out and setting: the same measure for `CN[C@@]1(C)CCN(c2c(-c3cccc(F)c3)c(C)c(C#N)c3nc(C(=O)N(C)C)oc23)C1` [Example 157, 4-Cyano-6-(3-fluorophenyl)-N,N,5-trimethyl-7-[(3S)-3-methyl-3-(methylamino)pyrrolidin-1-yl]-1,3-benzoxazole-2-carboxamide]: 178 to 180 °C.
For the compound `CN[C@@]1(C)CCN(c2c(-c3ccccc3)c(C)c(C#N)c3nc(C(=O)N(C)C)oc23)C1` [Example 159, 4-Cyano-N,N,5-trimethyl-7-[(3S)-3-methyl-3-(methylamino)pyrrolidin-1-yl]-6-phenyl-1,3-benzoxazole-2-carboxamide], the melting point fell in the range of 172 to 174 °C. Moreover, the IC80 in the data set on C. albicans ATCC90028 amounted to 0.063 µg/mL (≈ 0.151 µM). Moreover, the IC80 with C. glabrata ATCC48435 is less than 0.016 µg/mL. In addition, in the data set on C. albicans ATCC MYA-573, the IC80 is 0.063 µg/mL (≈ 0.151 µM).
With `Cc1c(-c2ccccc2)c(N2CC[C@](C)(N)C2)c2oc(C(=O)N(C)C)nc2c1C#N` [Example 160, 7-[(3S)-3-Amino-3-methylpyrrolidin-1-yl]-4-cyano-N,N,5-trimethyl-6-phenyl-1,3-benzoxazole-2-carboxamide], the melting point lay within 202 to 204 °C.

As a reminder, the melting point is the temperature of the solid-liquid transition.
